From patent publication US12384769B2, “Heteroaryl-substituted aminoalkyl azole compounds as pesticides” (Elanco Animal Health GmbH, priority 2019, dated 2025)

What was measured:
Assay type in all cases: in vivo
[1] = test system: Boophilus microplus; experiment: Boophilus microplus injection test (BOOPMI Injection); settings: Rhipicephalus microplus, 168 h, injection into adult engorged female ticks, egg deposition after 7 days, read-out: activity (efficacy, infertile eggs); for pest or weed control at 0.004 mg: 4 μg/animal; for pest or weed control at 0.02 mg: 20 μg/animal
How it was run: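 Adult engorged female ticks (5 per group) injected into the abdomen with 1 μL compound in DMSO, then held in a climate chamber. Fertile egg deposition scored after 7 days, with unclear eggs kept until hatching (~42 days). Efficacy 100% = all eggs infertile, 0% = all fertile.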

[2] = test system: Rhipicephalus microplus (strain Parkhurst, resistant against synthetic pyrethroids); experiment: Rhipicephalus microplus in-vitro contact test, larval cattle tick (BOOPMI Contact); settings: 5 μg/cm^2 (=500 g/ha), after 48 hours, read-out: activity (efficacy, larvae dead or moribund)
How it was run: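 Glass tubes coated with compound in acetone (900 ppm giving 5 μg/cm²), dried, then loaded with 20-50 pyrethroid-resistant Parkhurst larvae and held at 27 °C, 85% RH. After 48 h negative geotaxis is scored; efficacy in % dead or moribund larvae.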

[3] = test system: Ctenocephalides felis; experiment: Ctenocephalides felis oral test (CTECFE); settings: 48 h, 100 ppm in cattle blood, after 2 days
How it was run: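 About 20 adult unfed fleas fed through parafilm on cattle blood held at 37° C and dosed with compound from a DMSO concentrate; flea chamber at room temperature. Percent mortality scored after 2 days.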

[4] = test system: Diabrotica balteata; experiment: Diabrotica balteata spray test; settings: 168 h, wheat seeds, after 7 days, read-out: activity (efficacy, seedlings grown); for pest or weed control at 160 µg/disc, 500 g/ha: 500 g/ha (=160 μg/well)
How it was run: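 Germinated wheat seedlings (5 per well, on agar) sprayed with compound in acetone/DMF with emulsifier-containing water, then infested with 10–20 Diabrotica balteata larvae. Efficacy (%) scored after 7 days from seedling growth: 100% = growth as untreated uninfested control, 0% = no seedlings grown.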

[5] = test system: Aedes aegypti strain MONHEIM; experiment: Aedes aegypti test (AEDSAE surface treatment & contact assay); settings: surface concentration 4 mg/m^2, glazed tile, 30 minutes exposure, 24 hours after contact, read-out: efficacy (mortality)
Procedure: Aedes aegypti Test (AEDSAE Surface Treatment & Contact Assay)
Solvent: Aceton+2000 ppm rapeseed oil methyl ester (RME)
In order to produce a sufficient, active ingredient containing solution it is necessary to solve the test compound in the solvent-mix (acetone at 2 mg/mL/RME 2000 ppm). This solution is pipetted onto a glazed tile and after evaporation of the acetone, adult mosquitoes of the species Aedes aegypti strain MONHEIM are placed onto the dried surface. The exposure time is 30 minutes.
Mortality in percent (%) is determined 24 hours after contact of the insects to the treated surface. 100% mortality means that all tested insects are dead, whereas 0% means that no insect died.

[6] = test system: Myzus persicae; experiment: Myzus persicae oral test; settings: 120 h, after 5 days
Procedure: Solvent: 100 parts by weight acetone
Afterwards the plates are sealed with parafilm through which a mixed population of the green peach aphid (Myzus persicae) can suck on the compound preparation.
After 5 days mortality in % is determined. 100% means all aphids have been killed and 0% means none of the aphids have been killed.

[7] = test system: Spodoptera frugiperda; experiment: Spodoptera frugiperda spray test; settings: in Zea mays, 168 h, read-out: activity (mortality)
How it was run: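 Compound in acetone/DMF, diluted in water with 1000 ppm alkylarylpolyglycol ether emulsifier, sprayed on maize leaf sections. Dried leaves infested with fall armyworm larvae; % mortality after 7 days (100% = all killed, 0% = none).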

[8] = test system: Ctenocephalides felis; experiment: Ctenocephalides felis in-vitro contact test, adult cat flea; settings: 5 μg/cm^2 (=500 g/ha), after 48 hours, read-out: activity (efficacy, fleas dead or moribund)
Procedure: Ctenocephalides felis—in-Vitro Contact Tests Adult Cat Flea
(§1) 9 mg compound is solved in 1 ml acetone and diluted with acetone to the desired concentration. 250 of the test solution is filled in 25 ml glass test tubes and homogeneously distributed on the inner walls by rotation and tilting on a shaking device (2 h at 30 rpm). With a compound concentration of 900 ppm, an inner surface of 44.7 cm^2 and a homogeneous distribution, a dose of 5 μg/cm^2 is achieved.
(§2) After the solvent has evaporated, each test tube is filled with 5-10 adult cat fleas (Ctenocephalides felis), closed with a perforated lid and incubated in a lying position at room temperature and relative humidity. After 48 hours efficacy is determined. The fleas are patted on the ground of the tubes and are incubated on a heating plate at 45-50° C. for at most 5 minutes Immotile or uncoordinated moving fleas, which are not able to escape the heat by climbing upwards, are marked as dead or moribund.
An efficacy of 100% means all fleas are dead or moribund; 0% means no fleas are dead or moribund.

[9] = test system: Rhipicephalus sanguineus; experiment: Rhipicephalus sanguineus in-vitro contact test, adult brown dog ticks (RHIPSA Contact); settings: 5 μg/cm^2 (=500 g/ha), after 48 hours, read-out: activity (efficacy, ticks dead or moribund)
Procedure: Rhipicephalus sanguineus—in-Vitro Contact Tests with Adult Brown Dog Ticks (RHIPSA Contact)
as §1, with “250 μl_,” for “250”
as §2, with “brown dog ticks (Rhipicephalus sanguineus),” for “cat fleas (Ctenocephalides felis),”, “ticks” for “fleas”, “ticks,” for “fleas,”
An efficacy of 100% means all ticks are dead or moribund; 0% means no ticks are dead or moribund.

| SMILES | pest or weed control at 0.004 mg [1] | pest or weed control at 0.02 mg [1] | pest or weed control at 5 µg/cm2 [2] | mortality at 100 ppm [3] | pest or weed control at 160 µg/disc, 500 g/ha [4] | mortality at 4 mg/m2 [5] | mortality at 4 ppm [6] | mortality at 100 g/ha [7] | mortality at 500 g/ha [7] | pest or weed control at 5 µg/cm2, 5 µg/cm2 [8] | pest or weed control at 100 g/ha [4] | pest or weed control at 5 µg/cm2, 5 µg/cm2 [9] |
| --- | --- | --- | --- | --- | --- | --- | --- | --- | --- | --- | --- | --- |
| C[C@H](Nc1nc2cc(C(F)(F)F)cc(Cl)c2o1)c1ncnn1-c1ncccn1 [Example I-006] | 100% | 100% | 100% | 100% | 100% | 85 to 100% | 90% | 100% | 100% | 100% |  |  |
| Cc1nc([C@H](C)Nc2nc3cc(C(F)(F)F)c(Cl)cc3o2)n(-c2ncccn2)n1 [Example I-011] | 100% | 100% | 80% | 100% | 100% |  | 90% |  | 100% |  | 100% | 80% |
| C[C@H](Nc1nc2cc(C(F)(F)F)cc(Cl)c2o1)c1ncnn1-c1ncc(Cl)cn1 [Example I-036, 7-chloro-N-{(1S)-1-[1-(5-chloropyrimidin-2-yl)-1H-1,2,4-triazol-5-yl]ethyl}-5-(trifluoromethyl)-1,3-benzoxazol-2-amine] | 100% | 100% | 100% | 100% |  |  |  | 100% |  | 80% | 100% | 100% |
| Cc1cnc(-n2ncnc2[C@H](C)Nc2nc3cc(C(F)(F)F)cc(Cl)c3o2)nc1 [Example I-040, 7-Chlor-N-{(1S)-1-[1-(5-methylpyrimidin-2-yl)-1H-1,2,4-triazol-5-yl]ethyl}-5-(trifluormethyl)-1,3-benzoxazol-2-amin] | 100% |  | 90% | 100% |  |  |  |  |  | 100% | 100% | 100% |
| C[C@H](Nc1nc2cc(C(F)(F)F)cc(Cl)c2o1)c1ncnn1-c1ncc(F)cn1 [Example I-045, 7-Chlor-N-{(1S)-1-[1-(5-fluorpyrimidin-2-yl)-1H-1,2,4-triazol-5-yl]ethyl}-5-(trifluormethyl)-1,3-benzoxazol-2-amin] | 100% | 100% | 80% | 100% | 100% |  |  | 100% | 100% | 100% | 100% | 100% |
| Cc1cnc(-n2ncnc2[C@H](C)Nc2nc3cc(C(F)(F)F)c(Cl)cc3o2)nc1 [Example I-060, 6-Chlor-N-{(1S)-1-[1-(5-methylpyrimidin-2-yl)-1H-1,2,4-triazol-5-yl]ethyl}-5-(trifluormethyl)-1,3-benzoxazol-2-amin] |  |  | 100% |  |  |  | 90% | 83% |  | 100% | 100% | 80% |
| C[C@H](Nc1nc2cc(C(F)(F)F)c(Cl)cc2o1)c1ncnn1-c1ncc(Br)cn1 [Example I-062, N-{(1S)-1-[1-(5-Brompyrimidin-2-yl)-1H-1,2,4-triazol-5-yl]ethyl}-6-chlor-5-(trifluormethyl)-1,3-benzoxazol-2-amin] | 100% | 100% | 100% |  | 100% |  |  | 100% | 100% | 100% | 100% | 100% |
| C[C@H](Nc1nc2cc(C3CC3)cc(Cl)c2o1)c1ncnn1-c1ncccn1 [Example I-065, 7-Chlor-5-cyclopropyl-N-{(1S)-1-[1-(pyrimidin-2-yl)-1H-1,2,4-triazol-5-yl]ethyl}-1,3-benzoxazol-2-amin] | 100% | 100% |  | 100% | 100% |  |  |  |  | 100% | 100% | 100% |
| C[C@H](Nc1nc2cc(OC(F)(F)F)c(Cl)cc2o1)c1ncnn1-c1ncccn1 [Example I-082, 6-Chlor-N-{(1S)-1-[1-(pyrimidin-2-yl)-1H-1,2,4-triazol-5-yl]ethyl}-5-(trifluormethoxy)-1,3-benzoxazol-2-amin] |  |  | 100% |  |  |  | 100% | 100% |  | 100% | 100% | 100% |
| Cc1nc([C@H](C)Nc2nc3cc(Cl)cc(C(F)(F)F)c3o2)n(-c2ccc(C(F)(F)F)cn2)n1 [Example I-086, 5-Chlor-N-[(1S)-1-{3-methyl-1-[5-(trifluormethyl)pyridin-2-yl]-1H-1,2,4-triazol-5-yl}ethyl]-7-(trifluormethyl)-1,3-benzoxazol-2-amin] |  |  | 90% |  |  |  | 90% |  |  |  |  |  |
| C[C@H](Nc1nc2cc(C(F)(F)F)c(Cl)cn2n1)c1ncnn1-c1ncccn1 [Example I-096, 6-chloro-N-{(1S)-1-[1-(pyrimidin-2-yl)-1H-1,2,4-triazol-5-yl]ethyl}-7-(trifluoromethyl)[1,2,4]triazolo[1,5-a]pyridin-2-amine] |  |  | 90% | 100% |  |  |  |  |  | 100% |  | 100% |
| C[C@H](Nc1nc2cc(C(F)(F)F)c(Cl)cc2o1)c1nc(C2CC2)nn1-c1ccc(C#N)cn1 [Example I-100, 6-{5-[(1S)-1-{[6-chloro-5-(trifluoromethyl)-1,3-benzoxazol-2-yl]amino}ethyl]-3-cyclopropyl-1H-1,2,4-triazol-1-yl}pyridine-3-carbonitrile] |  |  |  |  |  |  | 90% | 100% |  |  | 100% |  |
